Assay results reported in US11015223B2, “Methods for determining response to a hypomethylating agent” (THE REGENTS OF THE UNIVERSITY OF CALIFORNIA, priority 2013, dated 2021).

Tested on: MDS patients
Assay: Response to treatment by IWG response criteria revised in 2006 (CR/PR/HI = responders)
Assay type: in vivo, human
From the text: A total of 213 MDS patients treated azacitidine or decitabine were included in this study. Samples were obtained from patients treated at the Dana-Farber Cancer Institute (n=42), the MD Anderson Cancer Center (n=104), and as part of the DACO-020 (ADOPT) clinical trial of decitabine (n=67). All samples were collected with patient consent under IRB-approved protocols in accordance with the Declaration of Helsinki. There were no significant differences in baseline patient characteristics by treatment site (Table 1).
Response to treatment was assessed using IWG response criteria revised in 2006. Patients with either a complete response (CR), partial response (PR), or hematologic improvement (HI) were considered as ‘responders’ (R, n=100, 47%). whereas patients described as having ‘no response’, ‘stable disease’, ‘progressive disease’, ‘death’ before response assessment, or ‘not evaluable’ were considered ‘non-responders’ (NR, […], 53%).
Categorical variables were compared using a Fisher exact test, while continuous variables were compared using a Wilcoxon rank-sum test. A Cochran-Mantel-Haenszel (CMH) test was used to test for differences in response rate by mutational status controlling for treatment. Unadjusted and adjusted logistic regression models were used to predict response to therapy. A stepwise algorithm for logistic regression was also utilized to determine a final model; candidate variables considered for inclusion were all mutations, treatment, IPSS classification, age, and sex. The Hosmer and Lemeshow goodness-of-fit test was used to assess model fit for logistic regression models. Overall survival was calculated from the time of treatment to the time of death from any cause or was censored at the date last known alive. Unadjusted and adjusted Cox regression models were constructed for overall survival. A stepwise regression algorithm for Cox regression models was used including the same candidate variables as in the logistic regression modeling. Classification trees were also created using the Rpart package in R version 2.11.1 to classify responders based on mutational status. Cross-validation was used for tree pruning. All p-values reported are two-sided and considered significant at the 0.05 level. No adjustments were made for multiple hypothesis testing.

Compound: Nc1ncn([C@H]2C[C@H](O)[C@@H](CO)O2)c(=O)n1 [decitabine, 5-aza-2′-deoxycytidine]
- Non-Responders (NR/SD/PD/Died/NE) (%) (all patients on the treatment): (53) %
- Non-Responders (NR/SD/PD/Died/NE) N (all patients on the treatment): 76 N
- Responders (CR/PR/HI) N (all patients on the treatment): 68 N
- Responders (CR/PR/HI) (%) (all patients on the treatment, listed as Dec Alone): 47%
- Responders (CR/PR/HI) (%) (all patients on the treatment, listed as Decitabine Alone): (47) %
- Response (%) (patients with ASXL1 mutation): 42%
- Response N (patients with ASXL1 mutation): 29 N
- Response (%) (patients with ATRX mutation): 25%
- Response N (patients with ATRX mutation): 2 N
- Response (%) (patients with BCOR mutation): 56%
- Response N (patients with BCOR mutation): 9 N
- Response (%) (patients with CBL mutation): 11%
- Response N (patients with CBL mutation): 1 N
- Response (%) (patients with DNMT3A mutation): 36%
- Response N (patients with DNMT3A mutation): 8 N
- Response (%) (patients with ETV6 mutation): 50%
- Response N (patients with ETV6 mutation): 3 N
- Response (%) (patients with EZH2 mutation): 44%
- Response N (patients with EZH2 mutation): 7 N
- Response (%) (patients with IDH1 mutation): 25%
- Response N (patients with IDH1 mutation): 2 N
- Response (%) (patients with IDH2 mutation): 17%
- Response N (patients with IDH2 mutation): 2 N
- Response (%) (patients with JAK2 mutation): 40%
- Response N (patients with JAK2 mutation): 2 N
- Response (%) (patients with KDM3A mutation): 25%
- Response N (patients with KDM3A mutation): 2 N
- Response (%) (patients with KDM6B mutation): 25%
- Response N (patients with KDM6B mutation): 2 N
- Response (%) (patients with KRAS mutation): 20%
- Response N (patients with KRAS mutation): 1 N
- Response (%) (patients with MAML1 mutation): 54%
- Response N (patients with MAML1 mutation): 7 N
- Response (%) (patients with NF1 mutation): 31%
- Response N (patients with NF1 mutation): 4 N
- Response (%) (patients with NOTCH1 mutation): 38%
- Response N (patients with NOTCH1 mutation): 5 N
- Response (%) (patients with NOTCH2 mutation): 58%
- Response N (patients with NOTCH2 mutation): 11 N
- Response (%) (patients with NPM1 mutation): 71%
- Response N (patients with NPM1 mutation): 5 N
- Response (%) (patients with NRAS mutation): 73%
- Response N (patients with NRAS mutation): 11 N
- Response (%) (patients with PHF6 mutation): 50%
- Response N (patients with PHF6 mutation): 5 N
- Response (%) (patients with PRPF8 mutation): 33%
- Response N (patients with PRPF8 mutation): 3 N
- Response (%) (patients with PTPN11 mutation): 17%
- Response N (patients with PTPN11 mutation): 1 N
- Response (%) (patients with RUNX1 mutation): 53%
- Response N (patients with RUNX1 mutation): 16 N
- Response (%) (patients with SCAF11 mutation): 25%
- Response N (patients with SCAF11 mutation): 2 N
- Response (%) (patients with SF3B1 mutation): 36%
- Response N (patients with SF3B1 mutation): 8 N
- Response (%) (patients with SRSF2 mutation): 56%
- Response N (patients with SRSF2 mutation): 14 N
- Response (%) (patients with TET2 mutation): 54%
- Response N (patients with TET2 mutation): 22 N
- Response (%) (patients with TLR1 mutation): 71%
- Response N (patients with TLR1 mutation): 5 N
- Response (%) (patients with TP53 mutation): 47%
- Response N (patients with TP53 mutation): 9 N
- Response (%) (patients with U2AF1 mutation): 50%
- Response N (patients with U2AF1 mutation): 9 N
- Response (%) (patients with ZRSR2 mutation): 44%
- Response N (patients with ZRSR2 mutation): 4 N
